≈ marks a conversion by molar mass, not a printed value.
Assays:
[1] = system: human gastric cancer cell MKN-45; assay: In vitro anti-tumor cell activity (MTT), MKN-45; type: cell-based; settings: MKN-45 cells, MTT, 72 h, Bliss method; for IC50: Homo sapiens, read-out: MKN-45 IC50
Procedure: (§1) The digested cell solution was poured into a centrifuge tube, to which a culture media was added to stop the digestion. The centrifuge tube was centrifuged at 800 r/min for 10 min, the supernatant was removed gently and then 5 mL of the culture media was added. The cells were pipetted and mixed homogeneously. 10 μL cell suspension was taken into a cell counting plate for counting, wherein the cell concentration was adjusted to 10^4 cells/well. To each well of a 96-well plate, except for A1 well as blank control, was added 100 μL of the cell suspension. The 96-well plate was placed in an incubator and cultivated for 24 h. […] The 96-well plate was placed in an incubator and cultivated for 72 h. (3) The culture media containing the compounds in the 96-well plate was removed, and the cells were washed with phosphate buffered solution (PBS) twice. To each well was added 100 μL MTT (tetrazole) (0.5 mg/mL), after placing the plate in an incubator to incubate for 4 h, the MTT solution was removed and 100 μL dimethyl sulfoxide was added. The reaction product of survival cells with MTT, i.e. formazan, was dissolved completely by oscillation on a magnetic oscillator, and then placed into a microplate reader to measure the results, and the IC50 values of compounds could be deduced by Bliss method.

[2] = system: human nonsmall-cell lung cancer cell H460; assay: In vitro anti-tumor cell activity (MTT), H460; type: cell-based; settings: H460 cells, MTT, 72 h, Bliss method; for IC50: Homo sapiens, NCI-H460, read-out: H460 IC50
Procedure: as §1

[3] = system: human hepatoma carcinoma cell line SMMC-7721; assay: In vitro anti-tumor cell activity (MTT), SMMC-7721; type: cell-based; settings: SMMC-7721 cells, MTT, 72 h, Bliss method; for IC50: Homo sapiens, read-out: SMMC-7721 IC50
Procedure: as §1

[4] = molecular target: T1, c-Met kinase (His-tagged recombinant human Met (amino acids 974-end)) (Homo sapiens, UniProt P08581); assay: c-Met Enzyme Activity Inhibition Assay (ELISA); type: biochemical; settings: 50 pM c-Met, 5 μM ATP, room temperature 20 min; for IC50: read-out: IC50 for inhibiting c-Met kinase (converted)
T1 construct: His-tagged recombinant human Met (amino acids 974-end); His
T1 sequence (P08581 956-1390): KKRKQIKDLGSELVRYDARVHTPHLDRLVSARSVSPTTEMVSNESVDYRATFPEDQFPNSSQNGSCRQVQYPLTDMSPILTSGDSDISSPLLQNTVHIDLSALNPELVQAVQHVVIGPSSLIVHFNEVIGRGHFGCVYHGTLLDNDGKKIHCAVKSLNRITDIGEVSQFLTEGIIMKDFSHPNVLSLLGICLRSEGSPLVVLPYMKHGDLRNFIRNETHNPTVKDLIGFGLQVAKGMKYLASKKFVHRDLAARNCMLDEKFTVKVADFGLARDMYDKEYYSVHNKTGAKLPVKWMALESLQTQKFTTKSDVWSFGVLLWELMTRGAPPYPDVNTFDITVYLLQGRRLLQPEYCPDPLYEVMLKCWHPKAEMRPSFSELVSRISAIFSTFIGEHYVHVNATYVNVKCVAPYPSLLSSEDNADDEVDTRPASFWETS
Procedure: c-Met Enzyme Activity Inhibition Assay
The assay for the determination of c-Met kinase activity is based on an enzyme linked immunosorbant assay (ELISA). A compound of Formula I, 50 pM c-Met (His-tagged recombinant human Met (amino acids 974-end), expressed by baculovirus), and 5 μM ATP in an assay buffer (25 mM MOPS, pH 7.4, 5 mM MgCl2, […], 100 μM sodium orthovanadate, 0.01% Triton X-100, 1 mM DTT, final DMSO concentration 1% (v/v)) were incubated on a plate coated with 0.25 mg/mL POT at room temperature for 20 min. The reaction mixture was removed by washing and the phosphorylated polymer substrate was detected with 0.2 μg/mL phosphotyrosine specific monoclonal antibody (PY20) conjugated to horseradish peroxidase (HRP). After the addition of 1M phosphoric acid to stop the development, the chromogenic substrate (TMB) color was quantitated by spectrophotometry at 450 nm.

[5] = system: human colon cancer cell HT-29; assay: In vitro anti-tumor cell activity (MTT), HT-29; type: cell-based; settings: HT-29 cells, MTT, 72 h, Bliss method; for IC50: Homo sapiens, read-out: HT-29 IC50
Procedure: as §1

Molecule | IC50 [1] [ng/mL] | IC50 [2] [µg/mL] | IC50 [3] [µg/mL] | IC50 [4] [nM] | IC50 [5] [µg/mL] | MKN-45 IC50 [1] [µg/mL] | H460 IC50 [2] [µg/mL] | SMMC-7721 IC50 [3] [µg/mL] | IC50 for inhibiting c-Met kinase [4] [µg/mL] | HT-29 IC50 [5] [µg/mL]
COc1cc2c(Oc3ccc(NC(=O)c4nn(-c5ccc(F)c(F)c5)c(=O)n(C)c4=O)cc3F)ccnc2cc1OCCCN1CCC(C)CC1 [Example 19, N-[3-fluoro-4-[6-methoxy-7-[3-(4-methylpiperidin-1-yl)propyloxy]quinolin-4-oxy]phenyl]-2-(3,4-difluorophenyl)-4-methyl-3,5-dioxo-2,3,4,5-tetrahydro-1,2,4-triazine-6-carboxamide] | 230 (≈ 0.326 µM) | 1.1 (≈ 1.56 µM) | 0.74 (≈ 1.05 µM) | 766 | 0.24 (≈ 0.341 µM) | – | – | – | – | –
COc1cc2c(Oc3ccc(NC(=O)c4nn(-c5ccc(F)c(F)c5)c(=O)n(C)c4=O)cc3F)ccnc2cc1OCCCN1CCN(C)CC1 [Example 20, N-[3-fluoro-4-[6-methoxy-7-[3-(4-methyl-1-piperazinyl)propyloxy]quinolin-4-oxy]phenyl]-2-(3,4-difluorophenyl)-4-methyl-3,5-dioxo-2,3,4,5-tetrahydro-1,2,4-triazine-6-carboxamide] | 9 (≈ 0.0128 µM) | 0.28 (≈ 0.397 µM) | 0.11 (≈ 0.156 µM) | 241 | 0.14 (≈ 0.198 µM) | – | – | – | – | –
COc1cc2c(Oc3ccc(NC(=O)c4nn(-c5ccc(Cl)cc5)c(=O)n(C)c4=O)cc3F)ccnc2cc1OCCCN1CCCCC1 [Example 26, N-[3-fluoro-4-[6-methoxy-7-[3-(1-piperidinyl)propyloxy]quinolin-4-oxy]phenyl]-2-(4-chlorophenyl)-4-methyl-3,5-dioxa-2,3,4,5-tetrahydro-1,2,4-triazine-6-carboxamide;] | – | – | – | – | – | 0.011 | 0.15 | 0.33 | 0.71 | 0.08
COc1cc2c(Oc3ccc(NC(=O)c4nn(-c5ccc(Cl)cc5)c(=O)n(C)c4=O)cc3F)ccnc2cc1OCCCN1CCOCC1 [Example 27, N-[3-fluoro-4-[6-methoxy-7-[3-(4-morpholinyl)propyloxy]quinolin-4-oxy]phenyl]-2-(4-chlorophenyl)-4-methyl-3,5-dioxo-2,3,4,5-tetrahydro-1,2,4-triazine-6-carboxamide] | 5.3 (≈ 0.00767 µM) | 0.23 (≈ 0.333 µM) | 0.58 (≈ 0.839 µM) | 59.3 | 0.18 (≈ 0.26 µM) | – | – | – | – | –
C=CCn1c(=O)c(C(=O)Nc2ccc(Oc3ccnc4cc(OCCCN5CCCC5)c(OC)cc34)c(F)c2)nn(-c2ccc(Cl)cc2)c1=O [Example 38] | – | – | – | – | – | 0.62 | 1.4 | 1.8 | 2.76 | 0.54
C=CCn1c(=O)c(C(=O)Nc2ccc(Oc3ccnc4cc(OCCCN5CCOCC5)c(OC)cc34)c(F)c2)nn(-c2ccc(Br)cc2)c1=O [Example 39] | – | – | – | – | – | 0.19 | 1.4 | 2.1 | 1.8 | 0.83
N-[3-fluoro-4-[6-methoxy-7-(3-(4-methyl-1-piperazinyl)propyloxy)quinolin-4-oxy]phenyl]-2-(3-trifluoromethylphenyl)-4-methyl-3,5-dicarbamoyl-2,3,4,5-tetrahydro-1,2,4-triazine-6-carboxamide [Example 25] | – | – | – | – | – | 0.014 | 0.52 | 0.07 | 1.01 | 0.05
N-[3-fluoro-4-[6-methoxy-7-[3-(1-piperidinyl)propyloxy]quinolin-4-oxy]phenyl]-2-(3-trifluoromethylphenyl)-4-methyl-3,5-dicarbonyl-2,3,4,5-tetrahydro-1,2,4-triazine-6-carboxamide [Example 22] | – | – | – | – | – | 0.006 | 0.26 | 0.18 | 0.57 | 0.12
N-[3-fluoro-4-[6-methoxy-7-[3-(1-piperidinyl)propyloxy]quinolin-4-oxy]phenyl]-2-phenyl-4-methyl-3,5-dioxo-2,3,4,5-tetrahydro-1,2,4-triazine-6-carboxamide [Example 2] | – | – | – | – | – | 0.032 | 0.072 | 0.20 | 0.12 | 0.18
N-[3-fluoro-4-[6-methoxy-7-[3-(1-piperidinyl)propyloxy]quinolin]-4-oxy]phenyl]-2-(2,4-difluorophenyl)-4-benzyl-3,5-dicarbonyl-2,3,4,5-tetrahydro-1,2,4-triazine-6-carboxamide [Example 44] | – | – | – | – | – | 0.13 | 0.99 | 2.5 | 6.1 | 0.57
N-[3-fluoro-4-[6-methoxy-7-[3-(1-piperidinyl)propyloxy]quinolin]-4-oxy]phenyl]-2-(2-fluorophenyl)-4-allyl-3,5-dicarbonyl-2,3,4,5-tetrahydro-1,2,4-triazine-6-carboxamide [Example 40] | – | – | – | – | – | 0.05 | 1.0 | 3.1 | 5.1 | 0.26
N-[3-fluoro-4-[6-methoxy-7-[3-(1-pyrrolidyl)propyloxy]quinolin-4-oxy]phenyl]-2-(3-trifluoromethylphenyl)-4-methyl-3,5-dicarbonyl-2,3,4,5-tetrahydro-1,2,4-triazine-6-carboxamide [Example 21] | – | – | – | – | – | 0.0002 | 0.24 | 0.32 | 0.13 | 0.13
N-[3-fluoro-4-[6-methoxy-7-[3-(1-pyrrolidyl)propyloxy]quinolin-4-oxy]phenyl]-2-(4-methoxyphenyl)-4-methyl-3,5-dicarbonyl-2,3,4,5-tetrahydro-1,2,4-triazine-6-carboxamide [Example 11] | – | – | – | – | – | 3.3 | 2.1 | 2.5 | 0.47 | 1.4
N-[3-fluoro-4-[6-methoxy-7-[3-(1-pyrrolidyl)propyloxy]quinolin]-4-oxy]phenyl]-2-(4-fluorophenyl)-4-allyl-3,5-dicarbonyl-2,3,4,5-tetrahydro-1,2,4-triazine-6-carboxamide [Example 42] | – | – | – | – | – | 0.11 | 1.1 | 0.92 | 1.63 | 0.77
N-[3-fluoro-4-[6-methoxy-7-[3-(4-methyl-1-piperazinyl)propyloxy]quinolin]-4-oxy]phenyl]-2-(2-fluorophenyl)-4-allyl-3,5-dicarbonyl-2,3,4,5-tetrahydro-1,2,4-triazine-6-carboxamide [Example 41] | – | – | – | – | – | 0.06 | 0.8 | 1.4 | 2.7 | 1.1
N-[3-fluoro-4-[6-methoxy-7-[3-(4-methyl-1-piperazinyl)propyloxy]quinolin]-4-oxy]phenyl]-2-(3,4-difluorophenyl)-4-benzyl]-3,5-dicarbonyl-2,3,4,5-tetrahydro-1,2,4-triazine-6-carboxamide [Example 45] | – | – | – | – | – | 0.05 | 0.34 | 1.1 | 2.72 | 0.28

— patent US8993566B2, “Quinoline compound composing 1,2,4-triazine-dione and use thereof” (Wuhan Shengyun Biopharma Co., Ltd., priority 2012, dated 2015)
